Measured values taken from US20250215400A1, “CRYOPRESERVATION MEDIUM COMPRISING HYALURONIC ACID, USE THEREOF AND METHOD OF CRYOPRESERVATION” (CONTIPRO A.S., priority 2022, published 2025).

Columns and labels:
hMSC cells = assay: total number of hMSC cells (CaSy cell counter) after cryopreservation, thawing and two weeks of cultivation; format: cell-based, human; details: Example 1, cryopreservation medium in α-MEM
Protocol: FIG. 1 represents the total number of hMSC cells measured using CaSy cell counter (OMNI Life Science GmbH) after two weeks of cultivation. The data are shown as averages and the standard deviation is shown as an error bar.
Mesenchymal stem cell cultures were cryopreserved. The method of cryopreservation consists of the addition of a cryopreservation medium to the sample and the subsequent […] cryopreservation through a slow freeze at a rate of 1° C./min, for preservation of the sample at low temperatures (−80 C to −196C). The cryopreserved stem cell culture is revived after preservation by thawing in a water bath at 37° C. for 2 minutes and the cryopreservation medium is subsequently washed away from the cellular suspension by centrifugation. The cells are then seeded in a cultivation bottle and cultivated for two weeks.
For cryopreservation, 4 different combinations of cryoprotective medium containing hyaluronic acid with MW 1,500,000 g/mol in two concentrations of 0.1 and 0.2% (w/v) with an addition of 5 or 3% DMSO (v/v) dissolved in a standard α-MEM medium were used. The composition containing 5, 3 or 10% (v/v) DMSO in the medium served as a cryopreservation control.
The mesenchymal stem cells hMSC cultures were cryopreserved. […]

stem cells = details: room temperature; Pal et al., 2012; Tunçer et al., 2018; cited from earlier work

## C[S+](C)[O-] [DMSO, dimethyl sulfoxide]
hMSC cells
  stem cell survival and proliferation efficiency: lower MSCs survival and proliferation efficiency
Stem cells
  concentration range at which an effect on viability, morphology, cell adhesion and differentiation was observed: 0.1-1 % (v/v)
